According to patent US20170274005A1, “TREATMENT OF RETINITIS PIGMENTOSA USING HYALURONIC ACID-CARBON NANOMATERIAL-PHOTOSENSITIZER COMPLEX” (POSTECH ACADEMY-INDUSTRY FOUNDATION, priority 2016, published 2017):

Legend:
[1] = Analysis of prevention of active oxygen using DPPH; settings: aqueous solution, 0 to 100 μg/mL based on the amount of Ce6, FIG. 2
[2] = tested on: retinal pigment epithelium cell; assay: MTT assay of retinal pigment epithelium cell treated using sodium iodate; format: cell-based; settings: pre-treatment, then 5 mM sodium iodate, 24 hours, FIG. 5

What does the source list for chlorine e6 [Ce6]?
active oxygen suppression ability [1]: 60%; viability of the pre-treated cell versus cell treated using sodium iodate only [2]: lower
